Laboratory results published in publication PMC4915074 (Nature communications, 2013).

Tested on: VEGF
Experiment: VEGF gene expression in THP1 cells by quantitative real-time PCR
Type: cell-based, human
Conditions: 10 ng/mL (1.66 nM), 2 h, vs vehicle

relaxin
increase in relative expression of VEGF mRNA: 2.4 fold
